We go through two compounds from ChEMBL document CHEMBL1143631, “On the binding of indeno[1,2-c]isoquinolines in the DNA-topoisomerase I cleavage complex” (J Med Chem, 2005).

For this test, the target named is T1, DNA topoisomerase 1 (Homo sapiens) (UniProt P11387).
T1 sequence (whole entry): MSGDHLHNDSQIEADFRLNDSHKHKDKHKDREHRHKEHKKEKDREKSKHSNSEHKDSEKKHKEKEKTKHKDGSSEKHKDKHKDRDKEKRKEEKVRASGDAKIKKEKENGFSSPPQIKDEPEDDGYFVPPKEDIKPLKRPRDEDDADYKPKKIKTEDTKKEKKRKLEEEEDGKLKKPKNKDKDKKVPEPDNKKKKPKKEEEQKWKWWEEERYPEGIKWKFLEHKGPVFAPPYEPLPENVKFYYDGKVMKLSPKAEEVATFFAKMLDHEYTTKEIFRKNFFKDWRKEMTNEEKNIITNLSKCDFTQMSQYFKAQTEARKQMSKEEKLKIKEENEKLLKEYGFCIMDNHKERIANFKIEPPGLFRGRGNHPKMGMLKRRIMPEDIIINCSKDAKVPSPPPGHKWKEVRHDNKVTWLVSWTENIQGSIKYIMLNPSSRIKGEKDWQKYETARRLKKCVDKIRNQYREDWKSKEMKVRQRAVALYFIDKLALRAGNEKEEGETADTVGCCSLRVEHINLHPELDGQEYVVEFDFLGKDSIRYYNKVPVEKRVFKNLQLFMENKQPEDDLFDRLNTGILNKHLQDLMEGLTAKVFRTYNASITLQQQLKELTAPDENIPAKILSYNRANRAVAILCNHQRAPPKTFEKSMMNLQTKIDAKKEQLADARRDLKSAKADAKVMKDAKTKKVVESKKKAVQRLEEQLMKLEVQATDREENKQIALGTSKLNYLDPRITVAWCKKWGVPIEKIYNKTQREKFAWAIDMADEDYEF
Description: Inhibitory activity against DNA-Topoisomerase I.

Molecules are shown by their SMILES. Activity calls are given as the source filed them. The rule behind the calls is not given here.

In the case of `Nc1ccc2c3c(n(CCCCl)c(=O)c2c1)-c1cc2c(cc1C3=O)OCO2`, the inhibition result is “inactive”.

Take `O=C1c2cc3c(cc2-c2c1c1ccccc1c(=O)n2CCCCl)OCO3`: the inhibition entry was “inactive”.
